Here are results for 3 molecules from patent US11542524B2, “Elimination of proliferating cells from stem cell-derived grafts” (priority 2017, dated 2023).

Structures are written as SMILES. “Also recorded” adds a separate entry of the source. Bounds are passed on as bounds.

The test system of one series is HSV-TK-transduced cells. Nature of the series: Cell proliferation assay, low copy number, HSV-TK. Format: cell-based. How it is done: (§1) In another experiment, the cells were transduced with a low copy number of the plasmids and, thus, differences between the different nucleoside analogs could be observed. […] Ganciclovir at high concentrations is also toxic to non-transduced cells.
(§2) Finally, the cell proliferation assay was also performed with the SR39 or HSV-TK-transduced cells treated with penciclovir. […] Thus, penciclovir may be used as the prodrug with the suicide gene construct, such as HSV-TK, SR39, or UL97.

The subject of a further series is SR39-transduced cells. Nature of the series: Cell proliferation assay, low copy number, SR39. Format: cell-based. As for the experimental part: as §1, §2
A further series deals with non-transduced cells. Nature of the series: Cell proliferation assay, non-transduced cells. In kind it is cell-based. As for the experimental part:
as §1, §2

Series [1] deals with regular PSCs (not transduced with the TK construct). Nature of the series: Calcein cell viability assay, ganciclovir on control PSC. Format: cell-based, human. The conditions noted are these: concentrations of 40 μM. How it is done:
(§3) Cell Proliferation Measurement by Calcein Assay:
(§4) Cells were plated onto a 96 wells pre-coated with polyornothine+ECM (1/50). Respectively 1000 cells for pluripotent stem cells, 5000 cells for early NPC and 30000 cells for late NPC. Ganciclovir (Cemevene diluted in PBS, Roche) treatment was added the day after cell plating for PSC, 3 days later for early NPC and one week later for late NPC. Calcein (2 μM) was added for different time course of ganciclovir treatment (24H to 96H). Cell survival was measured by calcein integration after 24h of incubation in a 37° C. incubator.

The next series has as its system TK-NPC transplants. Nature of the series: Transplantation of 2-3 week NPC neurospheres into striatum and ganciclovir treatment. In kind it is in vivo, mice. As for the experimental part:
FIGS. 3A-3C: Schedule of cell transplantation and ganciclovir treatment. Different transplantation and ganciclovir treatment protocols were used. (A) Schematic representation of the differentiation protocol towards DA neurons. Pluripotent stem cells were cultured as neurospheres for 1 week for midbrain orientation phase, followed by a 2 or 3 week-maturation phase. (B) Transplantation of undifferentiated pluripotent stem cells with early or late ganciclovir treatment. Early treatment: undifferentiated pluripotent stem cells were transplanted and ganciclovir (or PBS control) was applied by daily intra-peritoneal injection from day 4 to day 19 post-transplantation. Late treatment: undifferentiated pluripotent stem cells were transplanted and ganciclovir (or PBS control) was applied by daily intra-peritoneal injection from day 30 to day 45 post-transplantation. (C) Transplantation of 2 or 3 week NPC: NPC containing—neurospheres were dissociated and transplanted into mice striatum. […] For all protocols, animals were sacrificed 1 month after termination of ganciclovir treatment.
(§5) Stereotaxic engraftment and ganciclovir treatment:
(§6) Undifferentiated pluripotent stem cells (20000 cells/μL) and dissociated neurospheres (100.000 cells/μL) were injected in the striatum of anesthetized mice using a 27-G Hamilton syringe. Injection coordinates for lateral striatum were: bregma=0.74 mm, mediolateral=2.25 mm, dorsoventral=3.5 mm; for medial striatum: bregma=0.74 mm, mediolateral=1.4 mm, dorsoventral=2.8 mm. Mice were euthanized one month later after ganciclovir termination.
(§7) Morphological and Phenotypic Analysis of Injected Surviving Cells:
(§8) Anesthetized mice were fixed by intracardiac perfusion of 4% paraformaldehyde in phosphate-buffered saline. Immunohistochemical detection was performed on 10-μm thick free-floating cryostat sections using Alexa 488-, or 555-labeled secondary antibodies or the biotin-avidin-peroxidase complex method (Vector). The following primary antibodies were used: Nestin (rabbit polyclonal anti-human, from Chemicon, 1/400), β3-tubulin (mouse monoclonal from Sigma or rabbit polyclonal from Covance, 1/2000), Neuronal Nuclei-specific protein (NeuN, mouse monoclonal from Chemicon, 1/1000), Glial Fibrillary Acidic Protein (GFAP, rabbit polyclonal from Dako, 1/2000), Proliferating Cell Nuclear Antigen (PCNA, mouse monoclonal from Dako, 1/100), Tyrosin Hydroxylase (TH, rabbit polyclonal from millipore, 1/500), iba 1 (polyclonal rabbit from Wako, 1/500), HSV-TK (mouse monoclonal, Gentaur, 1/100), ki67 (monoclonal rabbit, Abcam, 1/100 or mouse, Chemicon, 1/100).
BrdU (100 mg/kg, Millipore) was injected intraperitoneally twice daily for 3 consecutive days. Mice were sacrificed 5 days later and perfused, through the heart, with PBS and 4% paraformaldehyde in PBS. […]

The test system of series [2] is HEK cells transfected with UL97 under the UBI promoter. Nature of the series: Cell proliferation/viability assay, high copy number plasmid, UL97. Format: cell-based. How it is done:
(§9) In further experiments, cell proliferation assay was performed using different suicide gene constructs in combination with various drugs, such as acyclovir, ganciclovir, or pencilovir. In the first assay, a kinase from human cytomegalovirus (CMV), UL97, was used as a novel suicide gene. The HEK cells were transfected with a high copy number of the respective plasmids.

A further series has as its system TK-NPCs. Nature of the series: Calcein cell viability assay, ganciclovir time course on TK-NPC. Format: cell-based, human. Particulars: 40 μM. How it is done:
as §3, §4

In series [3] the test system is HEK cells transfected with HSV-TK plasmid. Nature of the series: Cell proliferation/viability assay, high copy number plasmid, HSV-TK. Format: cell-based. As for the experimental part: as §9
Series [4] deals with TK-PSC (HS415 pluripotent stem cells expressing HSV-TK under the Ki67 promoter). Nature of the series: Calcein cell viability assay, ganciclovir on TK-PSC. Format: cell-based, human. As for the experimental part: as §3, §4
For series [5], the system named is TK-PSC transplanted into the striatum. Nature of the series: Transplantation of TK-PSC into striatum and ganciclovir treatment (teratoma formation). Format: in vivo, NOD/SCID mice. As for the experimental part: FIGS. 3A-3C: Schedule of cell transplantation and ganciclovir treatment. Different transplantation and ganciclovir treatment protocols were used. (A) Schematic representation of the differentiation protocol towards DA neurons. Pluripotent stem cells were cultured as neurospheres for 1 week for midbrain orientation phase, followed by a 2 or 3 week-maturation phase. (B) Transplantation of undifferentiated pluripotent stem cells with early or late ganciclovir treatment. Early treatment: undifferentiated pluripotent stem cells were transplanted and ganciclovir (or PBS control) was applied by daily intra-peritoneal injection from day 4 to day 19 post-transplantation. Late treatment: undifferentiated pluripotent stem cells were transplanted and ganciclovir (or PBS control) was applied by daily intra-peritoneal injection from day 30 to day 45 post-transplantation. (C) Transplantation of 2 or 3 week NPC: NPC containing—neurospheres were dissociated and transplanted into mice striatum. Ganciclovir (or PBS control) treatment was given from day 4 to day 19 post-transplantation. For all protocols, animals were sacrificed 1 month after termination of ganciclovir treatment.
as §5, §6, §7, §8

For the next series, the system named is control neurons. Nature of the series: Calcein cell viability assay, ganciclovir on control neurons. Format: cell-based, human. Particulars: concentrations up to 40 μM. As for the experimental part: as §3, §4

With `Nc1nc2c(ncn2COCCO)c(=O)[nH]1` [acyclovir, Acyclovir], the “concentration needed to kill HSV-TK-transduced cells” value in the series with HSV-TK-transduced cells is “very high concentrations”. Further, the “concentration needed to kill SR39-transduced cells” value with SR39-transduced cells was “very high concentrations”.
On to `Nc1nc2c(ncn2CCC(CO)CO)c(=O)[nH]1` [penciclovir, Penciclovir], for which, in the series with non-transduced cells, the “toxicity in untransduced cells” value is listed as “did not show any toxicity”. Further, the “concentration needed to kill HSV-TK-transduced cells” value with HSV-TK-transduced cells was “relatively low concentrations”. In the series with SR39-transduced cells, the “concentration needed to kill SR39-transduced cells” value is reported as “relatively low concentrations”.
`Nc1nc(O)c2ncn(COC(CO)CO)c2n1` [ganciclovir, Ganciclovir]: the “toxicity to non-transduced cells” value in the series on non-transduced cells (at high concentrations) is on record as “toxic”. Besides, the “effect on regular (control) PSCs” value in [1] is “resistant; also recorded: no ganciclovir toxicity is observed”. The “size of NPC transplants (graft surface)” value in the series with TK-NPC transplants (NPC derived from 2-3 weeks old neurospheres) is given as “not affected”. Moreover, the “PCNA / Ki67 staining pattern of transplants” value in the series on TK-NPC transplants (NPC transplants) is on record as “did not alter this pattern”. Moreover, the “neural markers of transplanted cells (beta 3 tubulin, TH, nestin)” value in the series on TK-NPC transplants (immunofluorescence 7 weeks after transplantation) is on record as “None of these markers were affected”. For the same molecule, the “graft development, PBS versus ganciclovir” value with TK-NPC transplants (treated on days 7-22 following transplantation, sacrifice 4 weeks after end of treatment) was “No difference was observed”. The “sensitivity of UL97-transfected HEK cells” value in series [2] is on record as “showed sensitivity”. Besides, in the series with HSV-TK-transduced cells, the “concentration needed to kill HSV-TK-transduced cells” value was “relatively low concentration”. Besides, the “time to complete killing of TK-NPCs” value in the series with TK-NPCs (TK-NPCs after 1 week of neurosphere differentiation) is 8 days. The “killing of TK-NPCs” value with TK-NPCs (TK-NPCs after 2 weeks of neurosphere differentiation) was “not killed”. For the same molecule, the “concentration needed to kill SR39-transduced cells” value in the series on SR39-transduced cells is reported as “relatively low concentration”. The “sensitivity of HSV-TK-transfected HEK cells” value in [3] is recorded as “sensitivity”. Besides, the “time in which TK PSCs were killed” value in [4] (40 μM) is reported as at most 4 days. Besides, in series [4] (96h exposure), the “sensitivity of TK PSCs to ganciclovir exposure” value is “highly sensitive”. Further, in series [4] (TK PSCs, 96h exposure), the “ganciclovir concentration at which loss of cells was almost complete” value is 10 µM and the “ganciclovir concentration at which loss of cells was observed” value is 2.5 µM. Moreover, in [5] (15 days ganciclovir starting 4 days post-transplantation, daily intra-peritoneal injection), the “teratoma formation, early ganciclovir treatment” value was “no observed teratomas; also recorded: absence of teratoma formation and cell proliferation”. Besides, the “development of large tumors (graft surface), early ganciclovir treatment” value in series [5] (PSC transplanted, early treatment) is listed as “completely prevented”. Besides, the “tumor size (graft surface), late ganciclovir treatment” value in series [5] (PSC transplanted, late treatment) is “did not have any effect”. In addition, the “human cells (HCM) remaining in graft, early ganciclovir treatment” value in [5] (day 4 to 19 post-transplantation, analysed one month after end of treatment) is “hardly any human cells left; also recorded: barely detectable”. Moreover, in series [5] (ganciclovir days 30-45 post-transplantation, sacrifice 30 days after end of treatment), the “teratoma formation, late ganciclovir treatment” value is “teratoma formation in both; also recorded: no difference”. Further, the “effect on control neurons” value in the series with control neurons is “not affected”.
